# How the values were obtained:
# [1] = tested on: Mycobacterium avium; conditions: 104 mc'2 4
# [2] = tested on: Mycobacterium avium; conditions: isolate MAV3
# [3] = tested on: Mycobacterium avium; conditions: 104 mc'2 3
# [4] = tested on: Mycobacterium avium; conditions: isolate MAV3; remark: listed apart in the source
# [5] = tested on: Mycobacterium avium; conditions: 104 mc'2 4; remark: listed apart in the source
# [6] = tested on: Mycobacterium avium; conditions: 104
# [7] = tested on: Mycobacterium avium; conditions: isolate MAV1
# Description: Inhibition of multidrug resistance efflux pump in Mycobacterium avium isolate MAV1 assessed as potentiation of ciprofloxacin-induced antibacterial activity by measuring ciprofloxacin MIC at 1/2 MIC incubated for 3 days by MTT assay (Rvb = 2 ug/ml)
# [8] = tested on: Mycobacterium avium; conditions: 104; remark: listed apart in the source
# [9] = tested on: Mycobacterium avium; conditions: 104 mc'2 4; remark: listed apart in the source
# [10] = tested on: Mycobacterium avium; conditions: isolate MAV1; remark: listed apart in the source
# Description: Inhibition of multidrug resistance efflux pump in Mycobacterium avium isolate MAV1 assessed as potentiation of ciprofloxacin-induced antibacterial activity by measuring ciprofloxacin MIC at 1/4 MIC incubated for 3 days by MTT assay
# [11] = tested on: Mycobacterium avium; conditions: isolate MAV3; remark: listed apart in the source
# [12] = tested on: Mycobacterium avium; conditions: 104 mc'2 4; remark: listed apart in the source
# [13] = tested on: Mycobacterium avium; conditions: 104; remark: listed apart in the source
# [14] = tested on: Mycobacterium avium; conditions: 104; remark: listed apart in the source
# [15] = tested on: Mycobacterium avium subsp. avium ATCC 25291
# [16] = tested on: Mycobacterium avium; conditions: isolate MAV4
# [17] = tested on: Mycobacterium avium; conditions: isolate MAV3; remark: listed apart in the source
# [18] = tested on: Mycobacterium avium; conditions: 104 mc'2 3; remark: listed apart in the source
# [19] = tested on: Mycobacterium avium; conditions: isolate MAV1; remark: listed apart in the source
# [20] = tested on: Mycobacterium avium; conditions: isolate MAV2
# [21] = tested on: Mycobacterium avium subsp. avium ATCC 25291; remark: listed apart in the source
# [22] = tested on: Mycobacterium avium; conditions: isolate MAV1; remark: listed apart in the source
# [23] = tested on: Mycobacterium avium; conditions: isolate MAV2; remark: listed apart in the source
# Description: Inhibition of multidrug resistance efflux pump in Mycobacterium avium isolate MAV2 assessed as potentiation of ofloxacin-induced antibacterial activity by measuring ofloxacin MIC at 1/2 MIC incubated for 3 days by MTT assay
# [24] = tested on: Mycobacterium avium; conditions: isolate MAV2; remark: listed apart in the source
# [25] = tested on: Mycobacterium avium; conditions: isolate MAV4; remark: listed apart in the source
# [26] = tested on: Mycobacterium avium; conditions: isolate MAV4; remark: listed apart in the source
# [27] = tested on: Mycobacterium avium; experiment: Antimycobacterial activity against Mycobacterium avium isolate MAV1 assessed as reduction in bacterial viability incubated for 3 days by MTT assay; assay type: organism-based; conditions: in vitro, 72 h
# [28] = tested on: Mycobacterium avium; conditions: 104 mc'2 4; remark: listed apart in the source
# [29] = tested on: Mycobacterium avium; conditions: 104 mc'2 4; remark: listed apart in the source
# [30] = tested on: Mycobacterium avium; conditions: isolate MAV1; remark: listed apart in the source
# [31] = tested on: Mycobacterium avium subsp. avium ATCC 25291; remark: listed apart in the source
# Description: Inhibition of multidrug resistance efflux pump in Mycobacterium avium ATCC 25291 assessed as potentiation of clarithromycin -induced antibacterial activity by measuring clarithromycin MIC at 1/4 MIC incubated for 3 days by MTT assay
# [32] = tested on: Mycobacterium avium; conditions: 104 mc'2 3; remark: listed apart in the source
# [33] = tested on: Mycobacterium avium; experiment: Antimycobacterial activity against Mycobacterium avium isolate MAV3 assessed as reduction in bacterial viability incubated for 3 days by MTT assay; assay type: organism-based; conditions: 72 h
# [34] = tested on: Mycobacterium avium subsp. avium ATCC 25291; remark: listed apart in the source
# [35] = tested on: Mycobacterium avium; conditions: isolate MAV3; remark: listed apart in the source
# [36] = tested on: Mycobacterium avium subsp. avium ATCC 25291; remark: listed apart in the source
# Description: Inhibition of multidrug resistance efflux pump in Mycobacterium avium ATCC 25291 assessed as potentiation of ethidium bromide-induced antibacterial activity by measuring ethidium bromide MIC at 1/4 MIC incubated for 3 days by MTT assay
# [37] = tested on: Mycobacterium avium subsp. avium ATCC 25291; remark: listed apart in the source
# [38] = tested on: Mycobacterium avium; conditions: 104 mc'2 3; remark: listed apart in the source
# [39] = tested on: Mycobacterium avium; conditions: isolate MAV3; remark: listed apart in the source
# [40] = tested on: Mycobacterium avium; conditions: isolate MAV1; remark: listed apart in the source
# [41] = tested on: Mycobacterium avium subsp. avium ATCC 25291; remark: listed apart in the source
# Description: Inhibition of multidrug resistance efflux pump in Mycobacterium avium ATCC 25291 assessed as potentiation of clarithromycin -induced antibacterial activity by measuring clarithromycin MIC at 1/2 MIC incubated for 3 days by MTT assay
# [42] = tested on: Mycolicibacterium smegmatis; experiment: Antimycobacterial activity against Mycobacterium smegmatis str. MC2 155 assessed as reduction in bacterial viability incubated for 3 days by MTT assay; assay type: organism-based; conditions: 72 h
# [43] = tested on: Mycobacterium avium; conditions: 104; remark: listed apart in the source
# Description: Inhibition of multidrug resistance efflux pump in Mycobacterium avium 104 assessed as potentiation of clarithromycin -induced antibacterial activity by measuring clarithromycin MIC at 1/4 MIC incubated for 3 days by MTT assay
# [44] = tested on: Mycobacterium avium subsp. avium ATCC 25291; remark: listed apart in the source
# Description: Inhibition of multidrug resistance efflux pump in Mycobacterium avium ATCC 25291 assessed as potentiation of ethidium bromide-induced antibacterial activity by measuring ethidium bromide MIC at 1/2 MIC incubated for 3 days by MTT assay (Rvb = 50 ug/ml)
# [45] = tested on: Mycobacterium avium; conditions: isolate MAV3; remark: listed apart in the source
# [46] = tested on: Mycobacterium avium; conditions: isolate MAV4; remark: listed apart in the source
# Description: Inhibition of multidrug resistance efflux pump in Mycobacterium avium isolate MAV4 assessed as potentiation of clarithromycin -induced antibacterial activity by measuring clarithromycin MIC at 1/2 MIC incubated for 3 days by MTT assay
# [47] = tested on: Mycobacterium avium; conditions: isolate MAV4; remark: listed apart in the source
# [48] = tested on: Mycobacterium avium; conditions: 104; remark: listed apart in the source
# [49] = tested on: Mycobacterium avium subsp. avium ATCC 25291; remark: listed apart in the source
# [50] = tested on: Mycobacterium avium; conditions: isolate MAV2; remark: listed apart in the source
# [51] = tested on: Mycobacterium avium; conditions: 104 mc'2 3; remark: listed apart in the source
# [52] = tested on: Mycobacterium avium; conditions: isolate MAV1; remark: listed apart in the source
# [53] = tested on: Mycobacterium avium; conditions: isolate MAV1; remark: listed apart in the source
# [54] = tested on: Mycobacterium avium; conditions: isolate MAV1; remark: listed apart in the source
# Description: Inhibition of multidrug resistance efflux pump in Mycobacterium avium isolate MAV1 assessed as potentiation of ofloxacin-induced antibacterial activity by measuring ofloxacin MIC at 1/4 MIC incubated for 3 days by MTT assay (Rvb = 4 ug/ml)
# [55] = tested on: Mycobacterium avium; conditions: isolate MAV1; remark: listed apart in the source
# [56] = tested on: Mycobacterium avium; conditions: 104 mc'2 4; remark: listed apart in the source
# [57] = tested on: Mycobacterium avium; conditions: 104 mc'2 4; remark: listed apart in the source
# [58] = tested on: Mycobacterium avium; conditions: isolate MAV4; remark: listed apart in the source
# Description: Inhibition of multidrug resistance efflux pump in Mycobacterium avium isolate MAV4 assessed as potentiation of clarithromycin -induced antibacterial activity by measuring clarithromycin MIC at 1/4 MIC incubated for 3 days by MTT assay
# [59] = tested on: Mycobacterium avium; conditions: isolate MAV1; remark: listed apart in the source
# Description: Inhibition of multidrug resistance efflux pump in Mycobacterium avium isolate MAV1 assessed as potentiation of ofloxacin-induced antibacterial activity by measuring ofloxacin MIC at 1/2 MIC incubated for 3 days by MTT assay (Rvb = 4 ug/ml)
# [60] = tested on: Mycobacterium avium; conditions: isolate MAV3; remark: listed apart in the source
# [61] = tested on: Mycobacterium avium; conditions: in vivo, 72 h
# Description: Antimycobacterial activity against Mycobacterium avium 104 mc'2 3 assessed as reduction in bacterial viability incubated for 3 days by MTT assay
# [62] = tested on: Mycobacterium avium; conditions: isolate MAV4; remark: listed apart in the source
# Description: Inhibition of multidrug resistance efflux pump in Mycobacterium avium isolate MAV4 assessed as potentiation of ethidium bromide-induced antibacterial activity by measuring ethidium bromide MIC at 1/4 MIC incubated for 3 days by MTT assay
# [63] = tested on: Mycobacterium avium; conditions: isolate MAV2; remark: listed apart in the source
# Description: Inhibition of multidrug resistance efflux pump in Mycobacterium avium isolate MAV2 assessed as potentiation of clarithromycin -induced antibacterial activity by measuring clarithromycin MIC at 1/4 MIC incubated for 3 days by MTT assay (Rvb = >1024 ug/ml)
# [64] = tested on: Mycobacterium avium; conditions: isolate MAV4; remark: listed apart in the source
# [65] = Safety index, ratio of MTC for test compound to MTC for chlorpromazine for cytotoxicity in human monocyte-derived macrophages; assay type: cell-based, Macrophage cell line
# [66] = Safety index, ratio of MTC for test compound to MTC for thioridazine for cytotoxicity in human monocyte-derived macrophages; assay type: cell-based, Macrophage cell line
# [67] = Safety index, ratio of CC50 for test compound to CC50 for chlorpromazine for cytotoxicity in human monocyte-derived macrophages; assay type: cell-based, Macrophage cell line
smiles,measurement,setting,value
CSc1ccc2c(c1)N(CCC1CCCCN1C)c1ccccc1S2 (stereo unspecified) [THIORIDAZINE],MIC,[1],0.5 mg/L
same,MIC,[2],16 mg/L
same,MIC,[3],> 512 mg/L
same,MIC,[4],12.5 mg/L
same,MIC,[5],0.78 mg/L
same,MIC,[6],12.5 mg/L
same,MIC,[7],< 0.031 mg/L
same,MIC,[8],4 mg/L
same,MIC,[9],32 mg/L
same,MIC,[10],0.5 mg/L
same,MIC,[11],128 mg/L
same,MIC,[12],0.25 mg/L
same,MIC,[13],6.25 mg/L
same,MIC,[14],256 mg/L
same,MIC,[15],4 mg/L
same,MIC,[16],64 mg/L
same,MIC,[17],64 mg/L
same,MIC,[18],< 0.125 mg/L
same,MIC,[19],< 0.195 mg/L
same,MIC,[20],> 512 mg/L
same,MIC,[21],32 mg/L
same,MIC,[22],0.78 mg/L
same,MIC,[23],0.5 mg/L
same,MIC,[24],> 512 mg/L
same,MIC,[25],128 mg/L
same,MIC,[26],4 mg/L
same,MIC,[27],30 mg/L
same,MIC,[28],12.5 mg/L
same,MIC,[29],> 512 mg/L
same,MIC,[30],0.0625 mg/L
same,MIC,[31],2 mg/L
same,MIC,[32],4 mg/L
same,MIC,[33],30 mg/L
same,MIC,[34],4 mg/L
same,MIC,[35],4 mg/L
same,MIC,[36],25 mg/L
same,MIC,[37],32 mg/L
same,MIC,[38],< 4 mg/L
same,MIC,[39],8 mg/L
same,MIC,[40],16 mg/L
same,MIC,[41],1 mg/L
same,MIC,[42],30 mg/L
same,MIC,[43],4 mg/L
same,MIC,[44],6.25 mg/L
same,MIC,[45],4 mg/L
same,MIC,[46],1 mg/L
same,MIC,[47],64 mg/L
same,MIC,[48],64 mg/L
same,MIC,[49],16 mg/L
same,MIC,[50],6.25 mg/L
same,MIC,[51],1.56 mg/L
same,MIC,[52],< 4 mg/L
same,MIC,[53],< 4 mg/L
same,MIC,[54],1 mg/L
same,MIC,[55],< 4 mg/L
same,MIC,[56],> 512 mg/L
same,MIC,[57],> 512 mg/L
same,MIC,[58],4 mg/L
same,MIC,[59],< 0.0625 mg/L
same,MIC,[60],128 mg/L
same,MIC,[61],30 mg/L
same,MIC,[62],25 mg/L
same,MIC,[63],> 512 mg/L
same,MIC,[64],256 mg/L
CCCOc1ccc(-c2cn(CCN3CCCCCC3)c3ccccc3c2=O)cc1,MIC,[1],< 0.125 mg/L
same,MIC,[2],16 mg/L
same,MIC,[3],128 mg/L
same,MIC,[4],0.78 mg/L
same,MIC,[5],< 0.195 mg/L
same,MIC,[6],1.56 mg/L
same,MIC,[7],< 0.031 mg/L
same,MIC,[8],4 mg/L
same,MIC,[9],< 4 mg/L
same,MIC,[10],0.5 mg/L
same,MIC,[11],32 mg/L
same,MIC,[12],< 0.125 mg/L
same,MIC,[13],< 0.195 mg/L
same,MIC,[14],8 mg/L
same,MIC,[15],< 0.5 mg/L
same,MIC,[16],< 4 mg/L
same,MIC,[17],< 4 mg/L
same,MIC,[18],< 0.125 mg/L
same,MIC,[19],< 0.195 mg/L
same,MIC,[20],512 mg/L
same,MIC,[21],< 0.5 mg/L
same,MIC,[22],1.56 mg/L
same,MIC,[23],2 mg/L
same,MIC,[24],256 mg/L
same,MIC,[25],16 mg/L
same,MIC,[26],< 0.125 mg/L
same,MIC,[27],128 mg/L
same,MIC,[28],0.39 mg/L
same,MIC,[29],32 mg/L
same,selectivity ratio,[65],2 to 4
same,MIC,[30],< 0.125 mg/L
same,MIC,[31],8 mg/L
same,MIC,[32],2 mg/L
same,MIC,[33],128 mg/L
same,MIC,[34],< 1 mg/L
same,MIC,[35],2 mg/L
same,selectivity ratio,[66],4 to 6
same,MIC,[36],6.25 mg/L
same,MIC,[37],8 mg/L
same,MIC,[38],< 4 mg/L
same,MIC,[39],1 mg/L
same,MIC,[40],< 4 mg/L
same,MIC,[41],< 0.0625 mg/L
same,MIC,[42],128 mg/L
same,MIC,[43],1 mg/L
same,MIC,[44],< 0.39 mg/L
same,MIC,[45],4 mg/L
same,MIC,[46],< 0.0625 mg/L
same,MIC,[47],< 2 mg/L
same,MIC,[48],< 4 mg/L
same,MIC,[49],8 mg/L
same,MIC,[50],< 0.195 mg/L
same,MIC,[51],< 0.195 mg/L
same,MIC,[52],< 4 mg/L
same,MIC,[53],< 4 mg/L
same,MIC,[54],2 mg/L
same,MIC,[55],< 4 mg/L
same,MIC,[56],32 mg/L
same,MIC,[57],128 mg/L
same,MIC,[58],4 mg/L
same,selectivity ratio,[67],2 to 4
same,MIC,[59],< 0.0625 mg/L
same,MIC,[60],32 mg/L
same,MIC,[61],256 mg/L
same,MIC,[62],3.12 mg/L
same,MIC,[63],256 mg/L
same,MIC,[64],8 mg/L
